Reference: paper PMC5507300, “Antibacterial small molecules targeting the conserved TOPRIM domain of DNA gyrase” (PLoS ONE, 2017)
Converted amounts (≈) assume the structure as drawn.

Legend:
[1] = tested on: E. coli BW25113 ΔtolC/ΔyacG; test: Broth microdilution MIC, E. coli BW25113 ΔtolC/ΔyacG; format: cell-based
Description: (§1) Compound doubling dilutions were prepared in 100% DMSO (Sigma Aldrich) and 2 μL of each dilution was transferred to a 96-well plate with lid (Thermo Scientific). Inoculum for all MIC testing was prepared using the BBL Prompt Inoculation System (Becton Dickinson, Franklin Lakes, NJ USA) as described by the manufacturer to produce a suspension of cells at approximately 1.5 x 10^8 colony forming units (CFU)/mL [34–36] and a further dilution (1:1000) was made into cation adjusted Mueller-Hinton broth (CAMH broth, Becton-Dickinson). One hundred μL of this inoculum were then transferred to each well of the 96-well plate containing diluted compound (above). Plates were covered and incubated overnight (18 hrs.) at 37°C.
The yacG deletion allele from the Keio collection was amplified by PCR (primers: […] and […]) and moved to BW25113 ΔtolC as described below. The E. coli strain BW25113 ΔtolC containing pKD46 [25] was used to inoculate SOB (Invitrogen)/0.2% w/v arabinose (Sigma Aldrich)/ampicillin (100 μg/mL) and grown overnight at 30°C. The overnight culture was then diluted 1/40 into 20 mL fresh SOB/0.2% w/v arabinose/ampicillin (100 μg/mL) and grown at 30°C while shaking for ~3 hrs until OD600 = 0.5. Cells were pelleted by centrifugation at 4000 rpm for 10 min, washed with 40 mL ice cold sterile, distilled H2O, then 3 x 1 mL ice cold 10% glycerol followed by centrifugation at 5000 g for 3 minutes. The pellet was resuspended in 100 μL of 10% glycerol (1/200 of starting culture). For transformation, 5 μL of gel purified PCR product was added to 50 μL cells, mixed, and immediately electroporated in a 0.2 cm gap cuvette at 2.5kV, 25 μF, 200 Ω (BioRad, Hercules, CA USA). Electroporated cells were recovered in 1 mL SOC (Invitrogen)/0.2% arabinose at 37°C for 2 hours with shaking. Cells in amounts of 50 and 950 μL were then plated on LB agar supplemented with kanamycin (25 μg/mL) and incubated overnight at 37°C. Correct gene replacements were verified by PCR.

[2] = tested on: E. coli HS151 (qnrVC); test: Broth microdilution MIC, E. coli HS151 (qnrVC); format: cell-based
Source text: E. coli HS151 (ΔtolC) has been described previously. Gyrase inhibitor-resistant isolates (GYR101-108) were derived by selection for spontaneous resistance to MRL-770 or MRL-423 (Fig 1) in E. coli HS151 as described below. E. coli BW25113 and the Keio gene deletion collection based on BW25113 [25] were obtained from Thermo Fisher Scientific (Waltham, MA) and described in [26]. The plasmid-borne FQ resistance determinant, qnrVC3 [27], was kindly provided by D. Hooper (Massachusetts General Hospital). MB9796 (A. baumannii) is a derivative of MB9797 (ATCC19606) lacking lipopolysaccharide. The efflux-defective P. aeruginosa strain MB5890 (CB398) is a derivative of MB5919 (PAO1). MB2884 (E. coli) and CL15245 (K. pneumoniae) are clinical isolates from the Merck & Co., Inc., Kenilworth, NJ, USA, strain collection. S. aureus COL is a methicillin-resistant clinical isolate.
as §1

[3] = target: T1, S. aureus DNA gyrase (Staphylococcus aureus, UniProt P0A0K8); test: S. aureus DNA gyrase supercoiling reaction; format: biochemical; conditions: maximum achievable concentration (200 μM), pHOT-1 supercoiling
T1 construct: purchased TopoGEN, Inc
T1 sequence (P0A0K8 whole entry): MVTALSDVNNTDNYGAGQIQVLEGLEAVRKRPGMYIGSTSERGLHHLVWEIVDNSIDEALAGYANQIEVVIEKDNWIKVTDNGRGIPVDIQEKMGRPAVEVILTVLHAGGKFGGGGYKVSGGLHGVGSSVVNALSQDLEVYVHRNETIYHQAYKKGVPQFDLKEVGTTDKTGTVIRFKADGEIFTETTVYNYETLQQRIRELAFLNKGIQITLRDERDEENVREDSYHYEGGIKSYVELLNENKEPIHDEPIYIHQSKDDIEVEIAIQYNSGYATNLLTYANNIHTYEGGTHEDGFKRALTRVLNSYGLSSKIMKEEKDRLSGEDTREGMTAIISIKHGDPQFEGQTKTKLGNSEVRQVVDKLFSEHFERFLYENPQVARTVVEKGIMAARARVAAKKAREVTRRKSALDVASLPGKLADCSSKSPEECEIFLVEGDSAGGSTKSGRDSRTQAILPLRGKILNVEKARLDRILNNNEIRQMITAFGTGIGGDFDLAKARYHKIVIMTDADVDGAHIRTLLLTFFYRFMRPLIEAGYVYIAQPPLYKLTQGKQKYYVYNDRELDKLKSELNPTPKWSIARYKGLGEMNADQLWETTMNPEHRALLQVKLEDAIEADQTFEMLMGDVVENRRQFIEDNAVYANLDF
T1 sequence (P20831 whole entry, further chain): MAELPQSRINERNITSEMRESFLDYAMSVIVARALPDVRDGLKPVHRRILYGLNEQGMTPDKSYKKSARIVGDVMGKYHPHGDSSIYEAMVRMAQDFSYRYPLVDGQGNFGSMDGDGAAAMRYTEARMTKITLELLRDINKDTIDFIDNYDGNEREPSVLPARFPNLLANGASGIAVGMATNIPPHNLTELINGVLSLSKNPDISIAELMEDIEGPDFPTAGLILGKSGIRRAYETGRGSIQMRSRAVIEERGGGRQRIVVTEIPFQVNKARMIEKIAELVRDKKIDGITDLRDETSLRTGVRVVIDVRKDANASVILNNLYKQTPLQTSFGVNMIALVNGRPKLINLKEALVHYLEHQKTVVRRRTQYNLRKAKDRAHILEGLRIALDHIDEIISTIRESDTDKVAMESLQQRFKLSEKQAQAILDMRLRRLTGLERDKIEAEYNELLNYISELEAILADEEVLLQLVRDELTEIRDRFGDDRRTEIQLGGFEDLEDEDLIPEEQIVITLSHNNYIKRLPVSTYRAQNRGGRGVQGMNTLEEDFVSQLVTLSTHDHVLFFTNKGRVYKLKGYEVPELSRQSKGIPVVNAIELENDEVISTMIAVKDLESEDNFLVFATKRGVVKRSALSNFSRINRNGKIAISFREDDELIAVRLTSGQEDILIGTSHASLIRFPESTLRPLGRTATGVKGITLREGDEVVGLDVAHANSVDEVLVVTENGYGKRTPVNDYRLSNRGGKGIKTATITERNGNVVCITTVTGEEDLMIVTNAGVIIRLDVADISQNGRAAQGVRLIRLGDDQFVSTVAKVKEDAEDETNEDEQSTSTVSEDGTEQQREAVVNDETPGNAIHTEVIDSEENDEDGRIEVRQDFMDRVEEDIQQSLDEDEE

Row | Compound | effect of deletion of yacG on potency ([1]; E. coli BW25113 (ΔtolC) ΔyacG) | MIC ([1]; Escherichia coli, BW25113) [µg/mL] | resistance conferred by qnrVC3 expression ([2]; E. coli HS151 with plasmid qnrVC3 vs HS151) | MIC ([2]; Escherichia coli) [µg/mL] | activity against S. aureus DNA gyrase [3]
1 | Cn1ncc2cc(-c3cnnn3C3CCN(C(=O)Nc4cc(Cl)cc(Cl)c4)CC3)ccc21 [MRL-423] | does not affect the potency | 0.25 (≈ 0.532 µM) | no effect | 0.25 (≈ 0.532 µM) | 
2 | Cn1ncc2cc(-c3nnnn3C3CCN(C(=O)Nc4ccc(Cl)c(Cl)c4)CC3)ccc21 [MRL-1082] |  |  |  |  | does not inhibit
